Experimental data reported in US9050295B2, “Composition for treatment of tuberculosis” (ETH Zurich, priority 2007, dated 2015).

Target: EthR-VP16 binding to PethR (Mycobacterium bovis, UniProt Q7TVI1)
Format: cell-based, E. coli BL21(DE3)

EthR-VP16 binding to PethR, sequence (Q7TVI1 whole entry, looked up): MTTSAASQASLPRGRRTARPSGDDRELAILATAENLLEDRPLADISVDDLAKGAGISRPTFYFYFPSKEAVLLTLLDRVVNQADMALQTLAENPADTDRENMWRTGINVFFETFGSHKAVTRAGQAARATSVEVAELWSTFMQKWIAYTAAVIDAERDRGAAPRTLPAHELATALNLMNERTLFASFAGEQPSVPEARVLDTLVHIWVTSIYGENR

CCCC(=O)OCCc1ccccc1 [2-Phenylethyl butyrate]
green fluorescence (EthR-controlled GFP expression): adjustable green fluorescence
